Experiment [1] has as its system isolated ischemic rat heart. Put plainly: Cardioprotective effect in ischemic heart models of rats (Langendorff). As to conditions: 10 μM. The procedure, abridged:
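Langendorff-perfused male rat hearts (Krebs-Henseleit, 85 mmHg, 37 °C) pretreated 10 min with compound or vehicle (0.04% DMSO), then 30 min global ischemia and 30 min reperfusion. Read-outs: LVDP, HR, CF, rate-pressure product, time to contracture (first 5 mmHg EDP rise), LDH release.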

A further experiment has as its system diabetic rats. The experiment is described as follows: Effect on motor nerve conduction velocity in diabetic rats. Format: in vivo, rat. The settings on record: 50 mg/kg orally once a day. How it is done: Diabetes was induced with injection of Streptozotocin (65 mg/kg) in rats, then test compounds dissolved in 2 ml of media (physiological saline:ethanol:tween 80=1:1:1) were orally administrated once a day. Rats were anesthetized with pentotal, then the sciatic nerve was exposed to measure motor nerve conduction velocity. The nerve was stimulated at two points. The first stimulus electrode was inserted at proximal end, and second electrode stimulus electrode was inserted at the distal notch. The coaxia needle electrode was inserted into interdigitala muscle, then the muscle action potential induced by two points stimulation. The conduction velocity was calculated by dividing the distance between two stimulus points by the latency differences. Lipoic acid (100 mg/kg) was used in comparison with the compound of the present invention in recovery of impaired Motor Nerve Conduction Velocity (MNCV) in diabetic rats. The recovery (%) of Motor Nerve Conduction was calculated according to the following mathematical formula 1.

The next experiment relates to isolated rat aorta. Put plainly: Vasodilating effect on blood vessel excised from rats (methoxamine-constricted aorta). The settings on record: isolated rat aorta constricted with methoxamine (3 μM); read-out: Concentration for inhibition of constriction induced by methoxamine in rat arota (IC50). The procedure, abridged:
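Endothelium-denuded rat thoracic aortic rings (3 mm) in Krebs-Henseleit buffer, 37 °C, carbogen, 2 g resting tension, primed twice with 10^−5 M phenylephrine. After maximal contraction with 3×10^−6 M methoxamine, compounds added cumulatively at 1, 3, 10, 30 μM. IC50 = concentration giving 50% relaxation of maximal constriction, by linear regression.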

pIC50: −log10 of the molar value.

For `COC(OC)[C@@]1(C)Oc2ccc(N)cc2[C@H](N(Cc2nnn(C)n2)c2ccc(Cl)cc2)[C@H]1O` [Example 11, (2S,3R,4S)-6-amino-4-[N-(4-chlorophenyl)-N-(2-methyl-2H-tetrazol-5-ylmethyl)amino]-3-hydroxy-2-methyl-2-dimethoxymethyl-3,4-dihydro-2H-1-benzopyran], the “EDP (mmHg)” value in experiment [1] (after 30 min global ischemia and reperfusion) turned out to be 47.6 mmHg. Further, the “LDH (u/g)” value in experiment [1] (reperfusion LDH release) was 16.5 u/g. Also, the “LVDP X HR (%)” value in experiment [1] (reperfusion, % of pre-treatment DP) was determined as 24.8%. The “TTC” value in experiment [1] (time to contracture during global ischemia) is 19.9 min. Moreover, the “Recovery(%) of motor nerve conduction” value in the experiment with diabetic rats was determined as 45.8%. Besides, in the experiment on diabetic rats (streptozotocin diabetic rats), the MNCV worked out at 54 m/s. For the same compound, in the experiment on isolated rat aorta, the pIC50 is less than 4.52.
